Data reported in PMC9448371, “Synthesis and biological activity evaluation of 3-(hetero) arylideneindolin-2-ones as potential c-Src inhibitors” (Journal of Enzyme Inhibition and Medicinal Chemistry, 2022).
Like-named read-outs stand apart in the source and are kept apart here. One block for each molecule: values may come before it.

Columns and labels:
c-Src = target: T1, c-Src (Homo sapiens, UniProt P12931); assay: c-Src kinase inhibition assay (ADP-Glo Kinase Assay); type: biochemical; details: for IC50: 100 μM ATP, read-out: ID50 (the source's name); for Ki: calculated from ID50 assuming fully ATP-competitive inhibition
T1 construct: His6 (N); purchased Merck-Millipore 14–326
Method: To avoid peptide adsorption to the plastic surface, protein low-binding tubes were used. ADP-Glo Kinase Assay (Promega) was then used to detect kinase activity accordingly with manufacturer’s instruction with minor modifications. In details, reactions were transferred to white 384 well-plates and stopped by adding 10 µL of ADP-Glo Reagent (Promega) for 50 min at rt. 20 μL of Detection Reagent (Promega) was then added for 30 min and the reaction read using GloMax Discover microplate reader (Promega). Data were plotted using GraphPad Prism 5.0. […] Compounds tested were assumed to act as fully ATP-competitive inhibitors. Therefore, Ki values were calculated accordingly to Equation (2).

[1] = 100 μM compound, in-house collection screen, read-out: % Inhibition Src (100 μM)
[2] = 100 µM compound, Table 2, read-out: % Inhibition 100 µM
[3] = 10 µM compound, Table 3, tested as E/Z mixtures
[4] = 100 µM compound, Table 3, tested as E/Z mixtures, read-out: % Inhibition 100 µM
[5] = 100 µM compound, Table 3, tested as E/Z mixtures, 100 µM

T1 sequence (P12931 whole entry): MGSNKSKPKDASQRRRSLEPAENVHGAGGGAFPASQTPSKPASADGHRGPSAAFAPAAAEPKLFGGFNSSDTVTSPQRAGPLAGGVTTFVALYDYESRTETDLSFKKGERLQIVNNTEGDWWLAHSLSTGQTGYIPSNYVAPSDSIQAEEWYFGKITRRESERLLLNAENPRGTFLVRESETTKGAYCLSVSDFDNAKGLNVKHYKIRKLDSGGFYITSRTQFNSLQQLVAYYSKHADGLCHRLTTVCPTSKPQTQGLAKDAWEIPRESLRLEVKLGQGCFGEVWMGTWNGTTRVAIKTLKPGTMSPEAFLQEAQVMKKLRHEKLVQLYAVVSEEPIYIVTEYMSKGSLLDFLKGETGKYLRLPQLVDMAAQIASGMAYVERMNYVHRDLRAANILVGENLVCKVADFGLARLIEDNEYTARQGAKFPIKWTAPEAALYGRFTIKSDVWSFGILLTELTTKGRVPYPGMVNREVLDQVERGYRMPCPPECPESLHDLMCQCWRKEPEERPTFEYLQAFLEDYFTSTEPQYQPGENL

- inhibition at 100 µM (c-Src; [1]): 84%
SMILES: O=C(Nc1ccccc1)Nc1ccc(/C=C2\C(=O)Nc3ccccc32)cc1 [Compound 9]

- inhibition at 10 µM (c-Src; 10 µM compound, Table 2): 22.8 ± 2.94%
- inhibition at 100 µM (c-Src; [2]): 57.4 ± 6.31%
SMILES: O=C1/C(=C\C=C\c2ccc(-c3ccccc3)cc2)c2ccccc2N1O [Compound 23]

- melting point: 310 °C (dec.)
- inhibition at 10 µM (c-Src; [3]): 35.7 ± 9.66%
- inhibition at 100 µM (c-Src; [4]): 89 ± 1.35%
- IC50 (c-Src; Table 3): > 10 µM
SMILES: N#Cc1ccc(C=C2C(=O)Nc3cc(Cl)ccc32)cc1 [Compound 32, 4-((6-chloro-2-oxoindolin-3-ylidene)methyl)benzonitrile]

- inhibition at 100 µM (c-Src; [1]): 77.3%
SMILES: O=C1/C(=C\c2ccc(-c3ccccc3)cc2)c2ccccc2N1O [Compound 7]

- inhibition at 10 µM (c-Src; [3]): 63.4 ± 1.06%
- % Inhibition 100 µM (c-Src; 100 µM compound, Table 3, tested as E/Z mixtures, listed as C00042, 100 µM): 93.88 ± 0.58%
- inhibition at 100 µM (c-Src; [4]): 94%
- IC50 (c-Src; Table 3): 5.31 µM
- Ki (c-Src; Table 3): 3.58 µM
SMILES: O=C1Nc2cc(Cl)ccc2C1=Cc1ccc(OCc2ccc(C(=O)O)cc2)cc1 [Compound 47, 4-((4-((6-chloro-2-oxoindolin-3-ylidene)methyl)phenoxy)methyl)benzoic acid]

- inhibition at 100 µM (c-Src; [1]): 12.8%
SMILES: NC(=O)c1noc2c1CCCC2O (stereo not shown) [Compound 19]

- inhibition at 100 µM (c-Src; [1]): 15.5%
SMILES: O=C1c2cc(=O)c3cc(O)ccc3n2C2CCCN12 (stereo not shown) [Compound 18]

- melting point: 330 to 331 °C (dec.)
- inhibition at 10 µM (c-Src; [3]): 37.9 ± 0.35%
- inhibition at 100 µM (c-Src; [4]): 86.9 ± 2.5%
- IC50 (c-Src; Table 3): > 10 µM
SMILES: O=C1Nc2cc(Cl)ccc2C1=Cc1ccc(O)cc1 [Compound 35, 6-chloro-3–(4-hydroxybenzylidene)indolin-2-one]

- melting point: 188 to 189 °C
- inhibition at 10 µM (c-Src; [3]): 31.5 ± 3.16%
- inhibition at 100 µM (c-Src; [4]): 53.6 ± 12.9%
SMILES: O=C1Nc2cc(Cl)ccc2C1=Cc1cccc(Oc2ccccc2)c1 [Compound 38, 6-chloro-3–(3-phenoxybenzylidene)indolin-2-one]

- melting point: 231 to 232 °C
- inhibition at 10 µM (c-Src; [3]): 14.4 ± 2.09%
- % Inhibition 100 µM (c-Src; [5]): almost inactive
- inhibition at 100 µM (c-Src; [4]): 34.4 ± 13.3%
SMILES: O=C1Nc2cc(Cl)ccc2C1=Cc1ccc(OCC2CC2)cc1 [Compound 45, 6-Chloro-3–(4-(cyclopropylmethoxy)benzylidene)indolin-2-one]

- melting point: 239 to 240 °C (dec.)
- inhibition at 10 µM (c-Src; [3]): 16.9 ± 13.9%
- inhibition at 100 µM (c-Src; [4]): 84.27 ± 0.82%
SMILES: O=C1Nc2cc(Cl)ccc2C1=Cc1ccc(OCc2ccccc2)cc1 [Compound 37, 3–(4-(benzyloxy)benzylidene)-6-chloroindolin-2-one]

- inhibition at 100 µM (c-Src; [1]): 0.6%
SMILES: Cc1ccc(C2=CCNC(=O)C3C2c2ccccc2N3C)cc1 (stereo not shown) [Compound 16]

- melting point: 231 to 232 °C
- inhibition at 10 µM (c-Src; 10 µM compound, Table 2): 9.39 ± 19.2%
- inhibition at 100 µM (c-Src; [2]): 42 ± 8.91%
SMILES: COc1cc2c(cc1OC)C(=Cc1ccc(-c3ccccc3)cc1)C(=O)N2 [Compound 30, 3-([1,1′-biphenyl]-4-ylmethylene)-5,6-dimethoxyindolin-2-one]

- inhibition at 100 µM (c-Src; [1]): 83.2%
- IC50 (c-Src; Table 1): 12.5 µM
SMILES: O=C(Nc1ccccc1)Nc1ccc(/C=C2\C(=O)N(O)c3ccccc32)cc1 [Compound 8]

- inhibition at 100 µM (c-Src; [1]): 34.8%
SMILES: NC(=O)c1cc2cccc(-c3ccccc3)c2[nH]1 [Compound 3]

- inhibition at 100 µM (c-Src; [1]): 10.3%
SMILES: NC(=O)Nc1ccn([C@@H]2O[C@H](CO)CC2(F)F)c(=O)n1 [Compound 6]

- % Inhibition Src (100 μM) (c-Src; 100 μM compound, in-house collection screen, 100 µM): 43%
- % Inhibition Src (100 μM) (c-Src; 100 μM compound, in-house collection screen, listed as C00004, 100 µM): 43.5%
SMILES: CN(C)c1nsc2c1C(=O)c1ccccc1C2=O [Compound 10]

- inhibition at 100 µM (c-Src; [1]): 90%
- IC50 (c-Src; Table 1): 50 µM
SMILES: CC(=O)c1cccc(-c2nc3n(n2)CC(c2ccccc2)=NN3)c1 [Compound 13]

- inhibition at 100 µM (c-Src; [1]): 7.7%
SMILES: CCCN1CC2=C(CC(C)(C)CC2=O)N(c2ccc(C(N)=O)cc2)C1 [Compound 20]

- inhibition at 100 µM (c-Src; [1]): 40%
SMILES: COc1cc2c(cc1OC)C(c1ccc(OC(C)=O)cc1)CC(=O)N2 (stereo not shown) [Compound 12]

- % Inhibition Src (100 μM) (c-Src; 100 μM compound, in-house collection screen): did not affect the enzyme activity
SMILES: COc1ccc(-c2nc3n(n2)CC(c2ccccc2)=NN3)cc1 [Compound 14]

- melting point: 271 to 272 °C (dec.)
- inhibition at 10 µM (c-Src; [3]): 4.15 ± 1.28%
- % Inhibition 100 µM (c-Src; [5]): very low activity
- inhibition at 100 µM (c-Src; [4]): 47.2 ± 9.33%
SMILES: O=C1Nc2cc(Cl)ccc2C1=Cc1ccc(C(=O)O)cc1 [Compound 36, 4-((6-chloro-2-oxoindolin-3-ylidene)methyl)benzoic acid]

- inhibition at 10 µM (c-Src; 10 µM compound, Table 2): 34.2 ± 0.6%
- inhibition at 100 µM (c-Src; [2]): 87.5 ± 7.41%
SMILES: O=C1/C(=C/c2ccc(-c3ccccc3)cc2)CCN1O [Compound 24]

- melting point: 197 °C (dec.)
- inhibition at 10 µM (c-Src; [3]): 0%
- % Inhibition 100 µM (c-Src; 100 µM compound, Table 3, tested as E/Z mixtures, listed as C00041, 100 µM): 70.56 ± 4.80%
- inhibition at 100 µM (c-Src; [4]): 70%
SMILES: O=C(O)COc1ccc(C=C2C(=O)Nc3cc(Cl)ccc32)cc1 [Compound 46, 2–(4-((6-Chloro-2-oxoindolin-3-ylidene)methyl)phenoxy)acetic acid]

SMILES: COc1cc(OC)c(/C=C2/C(=O)Nc3ccccc32)c(OC)c1 [Compound 25]
- inhibition at 10 µM (c-Src; 10 µM compound, Table 2): 23.1 ± 5.55%
- inhibition at 100 µM (c-Src; [2]): 35.8 ± 3.69%

- inhibition at 100 µM (c-Src; [1]): 1.8%
SMILES: NC(=O)Nc1ccn([C@H]2C[C@H](O)[C@@H](CO)O2)c(=O)n1 [Compound 5]

- inhibition at 100 µM (c-Src; [1]): 4%
SMILES: NC(=O)n1ccc2ccc(N3CCCC3)nc21 [Compound 4]

- inhibition at 100 µM (c-Src; [1]): 28.6%
SMILES: NC(=O)n1ccc2ccc(-c3ccccc3F)nc21 [Compound 2]

- melting point: 201 to 202 °C
- inhibition at 10 µM (c-Src; [3]): 41 ± 10.3%
- % Inhibition 100 µM (c-Src; [5]): good activity
- inhibition at 100 µM (c-Src; [4]): 92.1 ± 3.84%
SMILES: COC(=O)c1ccc(COc2ccc(C=C3C(=O)Nc4cc(Cl)ccc43)cc2)cc1 [Compound 44, Methyl-4-((4-((6-chloro-2-oxoindolin-3-ylidene)methyl)phenoxy)methyl)benzoate]

- % Inhibition Src (100 μM) (c-Src; 100 μM compound, in-house collection screen, listed as C00001, 100 µM): 58.1%
- inhibition at 100 µM (c-Src; [1]): ~58%
SMILES: NC(=O)n1ccc2ccc(-c3ccc(F)cc3)nc21 [Compound 1]

- melting point: 233 to 234 °C
- inhibition at 10 µM (c-Src; [3]): 12.8 ± 1.32%
- inhibition at 100 µM (c-Src; [4]): 87.7 ± 3.04%
SMILES: O=C1Nc2cc(Cl)ccc2C1=Cc1ccc(-c2ccccc2)s1 [Compound 48, 6-chloro-3-((5-phenylthiophen-2-yl)methylene)indolin-2-one]

- inhibition at 10 µM (c-Src; 10 µM compound, Table 2): 67%
- % Inhibition 10 µM (c-Src; 10 µM compound, Table 2, listed as C00026, 10 µM): 67.03 ± 0.10%
- % Inhibition 100 µM (c-Src; 100 µM compound, Table 2, listed as C00026, 100 µM): 94.70 ± 0.30%
- inhibition at 100 µM (c-Src; [2]): 95%
- IC50 (c-Src; Table 2): 5.63 µM
- Ki (c-Src; Table 2): 3.8 µM
SMILES: O=C1Nc2cc(Cl)ccc2/C1=C/c1cc(Br)c(O)c(Br)c1 [Compound 26]

- melting point: 257 to 258 °C
- inhibition at 10 µM (c-Src; 10 µM compound, Table 2): 25.3 ± 9.71%
- inhibition at 100 µM (c-Src; [2]): 45.6 ± 7.85%
SMILES: O=C1Nc2ccccc2C1=Cc1ccc(-c2ccccc2)s1 [Compound 27, 3-((5-phenylthiophen-2-yl)methylene)indolin-2-one]

- inhibition at 10 µM (c-Src; 10 µM compound, Table 2): 39.8 ± 3.16%
- inhibition at 100 µM (c-Src; [2]): 78.6 ± 1.32%
SMILES: COc1cc2c(cc1OC)C(=Cc1cc(Br)c(O)c(Br)c1)C(=O)N2 [Compound 29, 3–(3,5-dibromo-4-hydroxybenzylidene)-5,6-dimethoxyindolin-2-one]

- inhibition at 100 µM (c-Src; [1]): 2.2%
SMILES: Nc1nsc2c1C(=O)c1ccccc1C2=O [Compound 11]

- inhibition at 10 µM (c-Src; 10 µM compound, Table 2): 32.1 ± 3.53%
- inhibition at 100 µM (c-Src; [2]): 64.6 ± 3.8%
SMILES: O=C1C(=Cc2cccc(Oc3ccccc3)c2)c2ccccc2N1O [Compound 22, 1-hydroxy-3–(3-phenoxybenzylidene)indolin-2-one]
